According to patent publication US20220009920A1 (GB005, Inc., priority 2020, published 2022):

Key:
Experiment in all cases: Large panel kinase profiling
Format in all cases: biochemical
Settings in all cases: 1 μM test article, 1 mM ATP
[1] = target: FGFR1 (Homo sapiens, UniProt P11362)
How it was run: (§1)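 CSox-Sensor fluorescence readout; test article 1 μM, ATP 1 mM, 30° C.; kinetic reads at 1-min intervals, Ex 360/Em 485 nm.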

[2] = target: T1, CHEK1/CHK1 (Homo sapiens, UniProt O14757)
T1 construct: AssayQuant Technologies, Inc. (ran the panel)
T1 sequence (O14757 1-476): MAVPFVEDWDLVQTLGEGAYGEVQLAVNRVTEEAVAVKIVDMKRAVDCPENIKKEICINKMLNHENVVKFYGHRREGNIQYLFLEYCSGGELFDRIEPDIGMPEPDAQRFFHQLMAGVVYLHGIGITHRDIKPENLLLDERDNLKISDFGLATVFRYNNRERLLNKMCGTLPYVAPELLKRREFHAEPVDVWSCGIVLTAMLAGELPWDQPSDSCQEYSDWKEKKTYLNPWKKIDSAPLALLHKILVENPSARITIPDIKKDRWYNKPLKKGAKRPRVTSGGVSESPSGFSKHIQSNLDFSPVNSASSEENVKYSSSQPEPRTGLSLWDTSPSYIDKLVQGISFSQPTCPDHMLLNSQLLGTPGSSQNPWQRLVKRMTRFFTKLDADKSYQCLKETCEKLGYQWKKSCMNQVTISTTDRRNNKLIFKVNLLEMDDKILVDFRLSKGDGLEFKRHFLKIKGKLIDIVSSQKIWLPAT
How it was run: as §1

[3] = target: T2, MYLK2 (Homo sapiens, UniProt Q9H1R3)
T2 construct: AssayQuant Technologies, Inc. (assay service)
How it was run: as §1

[4] = target: MAP3K1 (Homo sapiens, UniProt Q13233)
How it was run: as §1

[5] = target: T3, SGK2 (Homo sapiens, UniProt Q9HBY8)
T3 construct: AssayQuant Technologies, Inc. (contract assay)
T3 sequence (Q9HBY8 1-367): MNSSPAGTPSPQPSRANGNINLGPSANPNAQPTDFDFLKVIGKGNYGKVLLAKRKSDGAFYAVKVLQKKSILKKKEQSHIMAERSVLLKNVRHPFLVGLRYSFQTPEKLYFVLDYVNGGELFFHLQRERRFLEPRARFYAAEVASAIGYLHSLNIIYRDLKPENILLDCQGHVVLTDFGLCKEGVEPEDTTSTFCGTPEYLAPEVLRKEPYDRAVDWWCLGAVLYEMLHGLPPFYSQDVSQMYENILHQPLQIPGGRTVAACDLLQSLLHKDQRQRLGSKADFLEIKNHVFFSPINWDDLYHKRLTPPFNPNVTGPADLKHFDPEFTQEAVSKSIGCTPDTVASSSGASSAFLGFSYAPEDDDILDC
How it was run: as §1

[6] = target: T4, MST1R/RON (Homo sapiens, UniProt Q04912)
T4 construct: AssayQuant Technologies, Inc. (assay service)
How it was run: as §1

[7] = target: T5, CDC42BPA/MRCKA (Homo sapiens, UniProt Q5VT25)
T5 construct: AssayQuant Technologies, Inc. (ran the panel)
How it was run: as §1

[8] = target: INSRR (Homo sapiens, UniProt P14616)
How it was run: as §1

[9] = target: BLK (Homo sapiens, UniProt P51451)
How it was run: as §1

Chain of FGFR1 (P11362 22-822, species assumed): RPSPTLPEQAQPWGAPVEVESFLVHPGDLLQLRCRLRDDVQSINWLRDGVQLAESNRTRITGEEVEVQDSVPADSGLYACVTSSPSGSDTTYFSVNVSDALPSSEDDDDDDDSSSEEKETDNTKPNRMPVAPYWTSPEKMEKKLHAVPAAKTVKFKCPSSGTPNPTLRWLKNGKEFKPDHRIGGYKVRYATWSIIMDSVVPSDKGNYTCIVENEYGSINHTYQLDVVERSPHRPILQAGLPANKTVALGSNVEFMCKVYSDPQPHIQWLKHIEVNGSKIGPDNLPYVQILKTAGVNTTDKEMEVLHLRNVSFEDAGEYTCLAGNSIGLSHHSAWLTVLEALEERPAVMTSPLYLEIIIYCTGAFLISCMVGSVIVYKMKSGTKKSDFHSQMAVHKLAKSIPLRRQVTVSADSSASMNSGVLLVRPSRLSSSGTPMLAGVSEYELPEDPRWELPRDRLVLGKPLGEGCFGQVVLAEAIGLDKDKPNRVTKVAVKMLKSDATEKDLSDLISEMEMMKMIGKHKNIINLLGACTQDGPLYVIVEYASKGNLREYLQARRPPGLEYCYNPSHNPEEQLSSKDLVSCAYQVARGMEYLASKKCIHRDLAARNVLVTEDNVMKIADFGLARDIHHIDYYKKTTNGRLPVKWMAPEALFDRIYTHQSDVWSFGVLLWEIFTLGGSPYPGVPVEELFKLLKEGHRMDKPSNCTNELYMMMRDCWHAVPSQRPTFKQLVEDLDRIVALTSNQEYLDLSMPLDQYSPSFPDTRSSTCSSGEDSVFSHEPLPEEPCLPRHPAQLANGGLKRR
Chain of MAP3K1 (Q13233 whole entry, species assumed): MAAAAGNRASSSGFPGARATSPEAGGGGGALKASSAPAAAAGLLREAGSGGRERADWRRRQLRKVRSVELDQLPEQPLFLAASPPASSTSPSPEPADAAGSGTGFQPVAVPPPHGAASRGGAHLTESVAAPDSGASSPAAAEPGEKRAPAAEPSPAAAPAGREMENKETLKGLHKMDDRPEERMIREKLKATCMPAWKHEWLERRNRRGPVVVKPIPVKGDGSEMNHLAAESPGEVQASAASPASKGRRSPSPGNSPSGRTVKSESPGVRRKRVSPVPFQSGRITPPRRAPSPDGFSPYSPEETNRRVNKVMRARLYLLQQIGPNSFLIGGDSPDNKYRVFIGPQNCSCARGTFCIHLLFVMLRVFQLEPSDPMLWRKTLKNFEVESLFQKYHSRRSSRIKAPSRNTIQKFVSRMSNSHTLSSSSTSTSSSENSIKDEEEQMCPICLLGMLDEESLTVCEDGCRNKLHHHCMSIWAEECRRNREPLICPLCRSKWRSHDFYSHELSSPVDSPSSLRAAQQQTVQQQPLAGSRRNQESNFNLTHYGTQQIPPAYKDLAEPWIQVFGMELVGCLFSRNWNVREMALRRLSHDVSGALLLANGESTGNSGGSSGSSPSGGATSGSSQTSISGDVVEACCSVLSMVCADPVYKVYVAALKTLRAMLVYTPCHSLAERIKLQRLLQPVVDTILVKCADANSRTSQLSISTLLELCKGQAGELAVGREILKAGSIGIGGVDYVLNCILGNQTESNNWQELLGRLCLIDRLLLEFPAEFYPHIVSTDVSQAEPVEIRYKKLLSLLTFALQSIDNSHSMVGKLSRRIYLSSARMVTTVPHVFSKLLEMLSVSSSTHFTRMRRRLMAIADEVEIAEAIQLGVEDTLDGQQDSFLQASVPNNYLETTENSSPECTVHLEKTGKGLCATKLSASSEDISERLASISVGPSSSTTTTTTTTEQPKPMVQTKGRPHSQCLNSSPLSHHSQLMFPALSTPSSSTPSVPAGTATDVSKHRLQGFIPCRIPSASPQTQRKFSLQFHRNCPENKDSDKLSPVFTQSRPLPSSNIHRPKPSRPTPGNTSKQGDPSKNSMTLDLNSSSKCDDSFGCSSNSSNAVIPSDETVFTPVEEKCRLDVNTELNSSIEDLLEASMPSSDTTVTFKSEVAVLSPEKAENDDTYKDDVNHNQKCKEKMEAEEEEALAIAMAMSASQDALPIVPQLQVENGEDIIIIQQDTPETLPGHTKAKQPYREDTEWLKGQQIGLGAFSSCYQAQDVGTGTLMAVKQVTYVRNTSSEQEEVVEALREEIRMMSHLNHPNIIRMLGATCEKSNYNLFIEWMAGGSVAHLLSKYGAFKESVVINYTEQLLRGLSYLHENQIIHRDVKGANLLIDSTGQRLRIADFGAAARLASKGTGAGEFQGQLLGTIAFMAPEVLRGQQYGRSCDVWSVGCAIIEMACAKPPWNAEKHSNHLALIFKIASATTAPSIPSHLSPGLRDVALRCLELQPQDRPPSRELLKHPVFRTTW
T4 sequence (Q04912 25-1400): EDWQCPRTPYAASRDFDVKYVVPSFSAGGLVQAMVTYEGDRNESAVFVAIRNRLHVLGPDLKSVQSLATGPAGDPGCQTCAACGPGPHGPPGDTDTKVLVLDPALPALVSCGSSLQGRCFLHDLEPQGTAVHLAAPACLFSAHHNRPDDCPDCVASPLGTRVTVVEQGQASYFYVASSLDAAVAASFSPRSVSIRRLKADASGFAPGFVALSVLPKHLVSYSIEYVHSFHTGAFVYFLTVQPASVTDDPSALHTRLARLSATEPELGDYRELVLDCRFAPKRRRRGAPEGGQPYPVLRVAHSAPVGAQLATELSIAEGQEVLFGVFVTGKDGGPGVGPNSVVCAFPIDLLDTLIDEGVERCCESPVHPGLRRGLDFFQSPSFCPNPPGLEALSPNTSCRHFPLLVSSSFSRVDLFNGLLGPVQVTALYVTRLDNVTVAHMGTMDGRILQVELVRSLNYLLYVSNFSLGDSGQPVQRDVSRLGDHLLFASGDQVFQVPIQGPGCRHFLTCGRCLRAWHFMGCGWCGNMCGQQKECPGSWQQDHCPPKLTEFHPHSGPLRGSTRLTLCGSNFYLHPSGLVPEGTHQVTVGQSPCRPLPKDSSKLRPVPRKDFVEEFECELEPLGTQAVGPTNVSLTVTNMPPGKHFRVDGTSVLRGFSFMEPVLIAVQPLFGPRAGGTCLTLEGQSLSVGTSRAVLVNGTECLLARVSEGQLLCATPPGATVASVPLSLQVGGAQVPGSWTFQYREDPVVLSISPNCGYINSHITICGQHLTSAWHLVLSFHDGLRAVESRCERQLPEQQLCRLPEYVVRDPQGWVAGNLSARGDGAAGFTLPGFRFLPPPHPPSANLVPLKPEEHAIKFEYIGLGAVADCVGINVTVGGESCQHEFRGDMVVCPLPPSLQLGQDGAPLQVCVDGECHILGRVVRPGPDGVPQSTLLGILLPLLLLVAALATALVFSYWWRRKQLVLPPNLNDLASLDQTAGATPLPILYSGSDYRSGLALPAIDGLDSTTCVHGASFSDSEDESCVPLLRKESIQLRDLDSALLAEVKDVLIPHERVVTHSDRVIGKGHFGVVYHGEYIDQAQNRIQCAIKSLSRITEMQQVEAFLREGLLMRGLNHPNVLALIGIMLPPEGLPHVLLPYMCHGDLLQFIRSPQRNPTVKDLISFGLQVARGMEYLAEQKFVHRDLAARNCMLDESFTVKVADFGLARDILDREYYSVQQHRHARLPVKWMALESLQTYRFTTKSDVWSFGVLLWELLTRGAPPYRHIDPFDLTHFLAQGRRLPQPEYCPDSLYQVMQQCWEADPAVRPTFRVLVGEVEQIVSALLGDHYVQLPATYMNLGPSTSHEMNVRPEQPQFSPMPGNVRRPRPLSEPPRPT
Chain of BLK (P51451 whole entry): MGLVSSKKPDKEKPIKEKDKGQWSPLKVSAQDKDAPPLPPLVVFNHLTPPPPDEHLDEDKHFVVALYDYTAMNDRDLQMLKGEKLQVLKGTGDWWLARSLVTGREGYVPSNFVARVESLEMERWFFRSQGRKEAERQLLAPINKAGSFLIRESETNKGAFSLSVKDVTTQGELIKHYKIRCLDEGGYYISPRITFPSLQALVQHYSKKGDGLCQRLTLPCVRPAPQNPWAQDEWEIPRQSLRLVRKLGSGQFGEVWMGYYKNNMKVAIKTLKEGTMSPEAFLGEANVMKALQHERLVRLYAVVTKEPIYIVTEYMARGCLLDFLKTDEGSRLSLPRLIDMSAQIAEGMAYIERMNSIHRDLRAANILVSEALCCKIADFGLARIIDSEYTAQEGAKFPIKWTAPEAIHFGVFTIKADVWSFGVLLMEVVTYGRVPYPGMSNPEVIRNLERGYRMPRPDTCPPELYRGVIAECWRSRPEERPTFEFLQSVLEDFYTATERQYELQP

## C=CC(=O)N1CCCC(c2c(F)cc(C(N)=O)c3[nH]c4c(c23)CCCCC4)C1 (single isomer, unassigned) [Compound 5-6]
[1]
  inhibition at 1 µM: 18.4%
[2]
  inhibition at 1 µM: -34.8%
[3]
  inhibition at 1 µM: 16.8%
[4]
  inhibition at 1 µM: 6.4%
[5]
  inhibition at 1 µM: -46.7%
[6]
  inhibition at 1 µM: -2.4%
[7]
  inhibition at 1 µM: -30.9%
[8]
  inhibition at 1 µM: 10.7%
[9]
  inhibition at 1 µM: 30.3%

## C=CC(=O)N1CCC[C@@H](c2c(F)cc(C(N)=O)c3[nH]c4c(c23)CCC4)C1 [Compound 10-2, (S)-8-(1-acryloylpiperidin-3-yl)-7-fluoro-1,2,3,4-tetrahydrocyclo-penta[b]indole-5-carboxamide]
[1]
  inhibition at 1 µM: 8.7%
[2]
  inhibition at 1 µM: 6.8%
[3]
  inhibition at 1 µM: -33.6%
[4]
  inhibition at 1 µM: 10.3%
[5]
  inhibition at 1 µM: -34.9%
[6]
  inhibition at 1 µM: -2.5%
[7]
  inhibition at 1 µM: 1.8%
[8]
  inhibition at 1 µM: -5.7%
[9]
  inhibition at 1 µM: -2.3%

## C=CC(=O)N1CCC[C@@H](c2c(F)cc(C(N)=O)c3[nH]c4c(c23)CC2(CC4)CC2)C1 [Compound 6-2, (S)-5-(1-acryloylpiperidin-3-yl)-6-fluoro-1,2,4,9-tetrahydrospiro[carbazole-3,1′-cyclopropane]-8-carboxamide]
[1]
  inhibition at 1 µM: 6.6%
[2]
  inhibition at 1 µM: -23.1%
[3]
  inhibition at 1 µM: -28.4%
[4]
  inhibition at 1 µM: -7.9%
[5]
  inhibition at 1 µM: -26.2%
[6]
  inhibition at 1 µM: -0.6%
[7]
  inhibition at 1 µM: -16.2%
[8]
  inhibition at 1 µM: -54.1%
[9]
  inhibition at 1 µM: 65.7%
